Experimental data from US11926846B2, “Hydroxyurea to enhance sperm cells” (Meharry Medical College, priority 2017, dated 2024).
Where “and” joins values, the source holds several entries; their conditions need not be identical. Identical values can stand only once.

Columns and labels:
[1] = tested on: human spermatozoa in semen samples; experiment: Post-cool and post-thaw sperm motility after cryopreservation in freezing buffer with HU (Working Example 4); assay type: cell-based; conditions: FB+HU, final HU 1 μM, listed as HU
Description: Post semen analysis was conducted of discarded and de-identified semen samples from Ovation Fertility Center that met the World Health Organization (WHO) criteria for normal semen samples. Those semen samples that met the WHO criteria for normal were divided into two halves. One half subjected to freezing with TEST-Yolk buffer (freezing buffer [FB]; Irvine Scientific, CA) containing 12% glycerol as cryoprotectant (control group). The remaining half of each sample was frozen with experimental freezing buffer composed of FB+HU (Sigma Aldridge, St. Louis; treatment group). Both control and experimental buffers were added on a 1:1 ratio to respective semen samples (v/v) in a dropwise manner. The final glycerol concentration in the semen+FB was 6% and the final HU concentration in semen+experimental freezing buffer was 1 μM to use a concentration of HU that is effective in inhibiting HIV replication. Pre-freeze sperm motility was determined for each sample prior to initiating the cooling arm of the freezing procedure. Samples in the control and treatment group were cooled for 24 hours to slow the HU induced vigorously motile cells in the treatment group. Subsequently, post cooling motility was determined prior to liquid nitrogen vapor phase freezing for 30 minutes before being stored immersed in LN for at least 24 hours before being thawed for analysis. […]

rats [2] = conditions: single dose; cited from earlier work
human sperm [3] = experiment: Overall sperm motility after 24 hour culture with HU at HIV-suppressing concentrations (Working Example 2); assay type: cell-based; conditions: HTF-buffer, 37° C., control 70.3
Description: Normal human semen was collected in 15 mL conical centrifuge tubes. Highly motile (i.e., Grade a) sperm were isolated and collected from the semen. The isolated highly motile sperm were washed in HTF medium containing 0.5% BSA (HTF-HEPES; pH 7.4) by centrifugation and suspended in bicarbonate (25 mM)-buffered HTF containing 0.5% (5 mg/ml) BSA (36; pH 7.4). Subsequently, each sperm suspension was incubated at 37° C. in an atmosphere of 5.0% CO2 in humidified air until aliquoted into the different treatment groups: a control group and a hydroxyurea processed group.
(§1) The control group was cultured in HTF-buffer containing 0 μg HU/mL at 37° C. in an atmosphere of 5.0% CO2 in humidified air for 24 hours. After the 24 hour culture, the control sperm were evaluated for pattern and degree of motility.
The hydroxyurea processed groups were cultured in HTF-buffer in two groups containing different concentrations of HU: (1) 1.0 mM HU and (2) 2.0 mM HU. The groups were cultured at 37° C. in an atmosphere of 5.0% CO2 in humidified air for 24 hours. After the 24 hour culture, the hydroxyurea processed sperm were evaluated for pattern and degree of motility.
Thus, it had been previously believed that HU was an unsuitable agent to suppress HIV replication and/or activation in semen, or to reduce the risk of HIV transmission, via HU treatment of reproductive cells.

human sperm [4] = experiment: Sperm motility after 24 hour culture in HTF-buffer containing HU (Working Example 1); assay type: cell-based; conditions: 18 μg HU/mL, 37° C.
Description: Human sperm was processed with HU to show enhanced motility over human sperm not processed with HU. Normal human semen was collected in 15 mL conical centrifuge tubes. Highly motile (i.e., Grade a) sperm were isolated and collected from the semen. The isolated highly motile sperm were washed in an HTF medium (HTF-HEPES; pH 7.4) containing 0.5% Bovine Serum Albumin (“BSA”) by centrifugation and suspended in bicarbonate (25 mM)-buffered HTF containing 0.5% (5 mg/ml) BSA (36; pH 7.4). Subsequently, each sperm suspension was incubated at 37° C. in an atmosphere of 5.0% CO2 in humidified air until aliquoted into the different treatment groups: a control group and a hydroxyurea processed group.
as §1
The hydroxyurea processed group was cultured in HTF-buffer containing 18 μg HU/mL at 37° C. in an atmosphere of 5.0% CO2 in humidified air for 24 hours. After the 24 hour culture, the hydroxyurea processed sperm were evaluated for pattern and degree of motility. […] The percentage of motile spermatozoa was calculated by multiplying the ratio of motile to 100 spermatozoa counted by 100.
The progressive motility of the control group sperm was higher (P<0.001; based on paired t-test comparison) than the progressive motility of the hydroxyurea processed group sperm. […] On the other hand, most of the sperm cells in the control buffer remained in a progressive motility state (motility pattern observed among sperm cells that have not acquired the ability to fertilize mature eggs). These findings are clinically significant, as progressive sperm motility is a determinant of ability of spermatozoa to penetrate cervical mucus on towards migration to the fertilization site (fallopian tubes), while that for hyperactive sperm motility (capacitation) is the motion pattern characteristic of spermatozoa that have attained the ability to fertilize mature eggs.

[5] = tested on: human spermatozoa in semen samples; experiment: Sperm motility after cooling in freezing buffer with HU before cryopreservation (Working Example 3); assay type: cell-based
Description: Post semen analysis was conducted of discarded and de-identified semen samples from Ovation Fertility Center that met the World Health Organization (WHO) criteria for normal semen samples. Those semen samples that met the WHO criteria for normal were divided into two halves. One half was subjected to freezing with TEST-Yolk buffer (freezing buffer [FB]; Irvine Scientific, CA) containing 12% glycerol as cryoprotectant (control group). The remaining half of each sample was frozen with experimental freezing buffer composed of FB+HU (Sigma Aldridge, St. Louis; treatment group). Both control and experimental buffers were added on a 1:1 ratio to respective semen samples (v/v) in a dropwise manner. The final glycerol concentration in the semen+FB was 6%, and the final HU concentration in semen+experimental freezing buffer was 1 μM to use a concentration of HU that is effective in inhibiting HIV replication. Pre-freeze sperm motility was determined for each sample prior to initiating the cooling step of the freezing procedure. Samples in the control and treatment group were cooled for 24 hours to slow the HU-induced vigorously motile cells in the treatment group. Subsequently, post cooling motility was determined prior to liquid nitrogen vapor phase freezing for 30 minutes before being stored immersed in liquid nitrogen (LN) for at least 24 hours before being thawed for analysis. Samples were thawed at room temperature for 35 minutes prior to motility analysis.

rats [6] = experiment: Oral LD50 in rats; conditions: rat oral LD50 divided by 1000

NC(=O)NO [hydroxyurea, Hydroxyurea]
Post-thaw Motility (HU; %) ([1]; liquid nitrogen at least 24 hours, thawed 35 minutes at room temperature, first figure of cell): 44% and 50% and 32%
Post-thaw Survival Relative to Post-cool Motility (HU; %) ([1]; post-thaw, second figure of cell): 71% and 76% and 49%
oral LD50 (rats [2]): 5780 mg/kg
overall motility (human sperm [3]; 1.0 mM HU): 66.6
overall motility (human sperm [3]; 2.0 mM HU): 68.3
overall percentage motility (progressively + hyperactively motile spermatozoa) (human sperm [4]; 5.0% CO2, 24 hours, control 75.4): 79.0%
hyperactive motility (human sperm [4]; 24 hours, control 23.0): 41.3%
progressive sperm motility (human sperm [4]; 24 hours, control 51.7±10.2): 37.7%
level of overall spermatozoa with motility (FIGS. 2A-2H) ([5]; HU treated, video stills over about 9 seconds, control low level): moderate to high level
motility maintained of the initial population of motile spermatozoa (pre-freeze) ([5]; freezing medium supplemented with HU, control 28-45%): 76-84%
longevity among post-thaw spermatozoa versus control group ([5]; frozen in FB+HU, post-thaw): higher
mean of the post-cool motility relative to post cool motility (survival of cooling process in percentage) ([5]; mean of seven HU treated samples, control 50.71): 71.91%
maximum effective dose (rough maximum safe dose for humans) (rats [6]): ≤ 5.78 mg/kg
